Test results reported in US5330989A, “Heterocycles substituted with biphenyl-3-cyclobutene-1,2-dione derivatives” (American Home Products Corporation, priority 1992, dated 1994).

Test system: A II-infused rat
Assay: A II-infused rat model, antihypertensive activity (arterial pressure)
Format: in vivo
Details: 3 mg/kg id (duodenal cannula); four hours post-administration; mecamylamine ganglion blockade; A II infusion […]
Protocol: In accordance with their ability to antagonize angiotensin II, the compounds of this invention show antihypertensive activity in the following A II-infused rat model. Rats are anesthetized with Dial-Urethane(0.60 mL/kg, ip) and the trachea cannulated with PE 240. Either one femoral artery and both femoral veins or the carotid artery and the corresponding jugular vein are cannulated with PE 50. If the jugular vein is cannulated, two cannulas are placed in the one vein. The initial portion of the duodenum (just distal to the stomach) is cannulated with PE 50 via a small midline incision. Arterial pressure and heart rate are measured from the arterial cannula. Ten to 15 min are allowed following surgery for stabilization of arterial pressure. Ganglion blockage is then produced by intravenous administration of mecamylamine at 3 mg/kg (1 mL/kg of a 3 mg/mL solution). Ganglion blockade causes a fall in arterial pressure of about 50 mmHg. Mecamylamine is given every 90 min throughout the remainder of the experiment. An A II infusion is then begun into the other venous cannula at 0.25 μg/kg/min (at 9.6 μL/min). The A II infusion returns arterial pressure to or slightly above the control level. Once arterial pressure has stabilized with the A II infusion, baseline values for mean arterial pressure (MAP) and heart rate are taken. […]

O=c1c(O)c(-c2ccccc2-c2ccc(CNc3nc(C(F)(F)F)nc4c3CCCC4)cc2)c1=O [Example 1, 3-hydroxy-4-[4'-[[[5,6,7,8-tetrahydro-2-(trifluoromethyl)-4-quinazolinyl]amino]methyl][1,1'-biphenyl]-2-yl]-3-cyclobutene-1,2-dione]
average lowering of the A II dependent blood pressure: 52%
